Reference: PubChem BioAssay AID2060488 (Molecular Pharmacology Branch, DTP, NCI, 2025)

Test system: 966289-007-R4-J1-PDC complex spheroid viability
Test: Anticancer human tumor 966289-007-R4-J1-PDC patient-derived pancreatic adenocarcinoma cell line growth inhibition [GQUAD]
Details: for IC50: curve of first compound; for viability, T/C: stronger effect = lower value
Procedure, shortened: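 Tumor cells were grown as complex spheroids with HUVEC endothelial cells and mesenchymal stem cells as stroma. G-quadruplex stabilizers were combined with targeted agents over half-log dilutions from near the clinical Cmax, or from 10 microM.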

[1] = second compound 0.0316 µM, first compound 0.0316 µM
[2] = second compound 0.0316 µM, first compound 0.1 µM
[3] = second compound 0.0316 µM, first compound 0.316 µM
[4] = second compound 0.0316 µM, first compound 1 µM
[5] = second compound 0.0316 µM, first compound 3.16 µM
[6] = second compound 0.0316 µM, first compound 10 µM
[7] = second compound 0.1 µM, first compound 0.0316 µM
[8] = second compound 0.1 µM, first compound 0.1 µM
[9] = second compound 0.1 µM, first compound 0.316 µM
[10] = second compound 0.1 µM, first compound 1 µM
[11] = second compound 0.1 µM, first compound 3.16 µM
[12] = second compound 0.1 µM, first compound 10 µM
[13] = second compound 0.316 µM, first compound 0.0316 µM
[14] = second compound 0.316 µM, first compound 0.1 µM
[15] = second compound 0.316 µM, first compound 0.316 µM
[16] = second compound 0.316 µM, first compound 1 µM
[17] = second compound 0.316 µM, first compound 3.16 µM
[18] = second compound 0.316 µM, first compound 10 µM
[19] = second compound 1 µM, first compound 0.0316 µM
[20] = second compound 1 µM, first compound 0.1 µM
[21] = second compound 1 µM, first compound 0.316 µM
[22] = second compound 1 µM, first compound 1 µM
[23] = second compound 1 µM, first compound 3.16 µM
[24] = second compound 1 µM, first compound 10 µM
[25] = second compound 3.16 µM, first compound 0.0316 µM
[26] = second compound 3.16 µM, first compound 0.1 µM
[27] = second compound 3.16 µM, first compound 0.316 µM
[28] = second compound 3.16 µM, first compound 1 µM
[29] = second compound 3.16 µM, first compound 3.16 µM
[30] = second compound 3.16 µM, first compound 10 µM
[31] = second compound 10 µM, first compound 0.0316 µM
[32] = second compound 10 µM, first compound 0.1 µM
[33] = second compound 10 µM, first compound 0.316 µM
[34] = second compound 10 µM, first compound 1 µM
[35] = second compound 10 µM, first compound 3.16 µM
[36] = second compound 10 µM, first compound 10 µM
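Note: spheroids exposed to the agents for seven days before readout.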
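Throughout, for viability, T/C: percent viability relative to DMSO vehicle control wells taken as 100%.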

CC(C)(O)C1CCC(Nc2ccc3ncc(-c4cccc(C(F)(F)F)c4)n3n2)CC1 (stereo not given) + CN(C)c1ccc(Nc2c3ccc(NC(=O)CCN4CCCC4)cc3nc3cc(NC(=O)CCN4CCCC4)ccc23)cc1
IC50 (second compound 0.0316 µM): > 10000 nM | IC50 (second compound 0.1 µM): 2940 nM | IC50 (second compound 0.316 µM): 3080 nM | IC50 (second compound 1 µM): 2090 nM | IC50 (second compound 3.16 µM): 1830 nM | IC50 (second compound 10 µM): 668 nM | viability, T/C [1]: 108% | viability, T/C [2]: 102% | viability, T/C [3]: 101% | viability, T/C [4]: 95.3% | viability, T/C [5]: 53.1% | viability, T/C [6]: 57.9% | viability, T/C [7]: 109% | viability, T/C [8]: 101% | viability, T/C [9]: 98.1% | viability, T/C [10]: 103% | viability, T/C [11]: 39.4% | viability, T/C [12]: 53.4% | viability, T/C [13]: 97.7% | viability, T/C [14]: 100% | viability, T/C [15]: 95.8% | viability, T/C [16]: 110% | viability, T/C [17]: 43.9% | viability, T/C [18]: 53.8% | viability, T/C [19]: 95.1% | viability, T/C [20]: 103% | viability, T/C [21]: 102% | viability, T/C [22]: 97.5% | viability, T/C [23]: 18.3% | viability, T/C [24]: 28.3% | viability, T/C [25]: 103% | viability, T/C [26]: 98.7% | viability, T/C [27]: 100% | viability, T/C [28]: 106% | viability, T/C [29]: 2.64% | viability, T/C [30]: 1.96% | viability, T/C [31]: 103% | viability, T/C [32]: 104% | viability, T/C [33]: 104% | viability, T/C [34]: 20.9% | viability, T/C [35]: 0.21% | viability, T/C [36]: 0.8%

COc1ncnc(C2CC2)c1-c1ncc2cnn(Cc3ccc(-c4nc(C(F)(F)F)cn4C(C)C)cc3)c2n1 + CN(C)c1ccc(Nc2c3ccc(NC(=O)CCN4CCCC4)cc3nc3cc(NC(=O)CCN4CCCC4)ccc23)cc1
IC50 (second compound 0.0316 µM): > 10000 nM | IC50 (second compound 0.1 µM): > 10000 nM | IC50 (second compound 0.316 µM): > 10000 nM | IC50 (second compound 1 µM): > 10000 nM | IC50 (second compound 3.16 µM): > 10000 nM | IC50 (second compound 10 µM): 5620 nM | viability, T/C [1]: 103% | viability, T/C [2]: 97% | viability, T/C [3]: 108% | viability, T/C [4]: 98.1% | viability, T/C [5]: 100% | viability, T/C [6]: 109% | viability, T/C [7]: 103% | viability, T/C [8]: 100% | viability, T/C [9]: 105% | viability, T/C [10]: 105% | viability, T/C [11]: 92.7% | viability, T/C [12]: 107% | viability, T/C [13]: 103% | viability, T/C [14]: 102% | viability, T/C [15]: 105% | viability, T/C [16]: 100% | viability, T/C [17]: 92% | viability, T/C [18]: 106% | viability, T/C [19]: 93.9% | viability, T/C [20]: 99.5% | viability, T/C [21]: 104% | viability, T/C [22]: 92.7% | viability, T/C [23]: 98.3% | viability, T/C [24]: 101% | viability, T/C [25]: 102% | viability, T/C [26]: 98.2% | viability, T/C [27]: 106% | viability, T/C [28]: 100% | viability, T/C [29]: 106% | viability, T/C [30]: 110% | viability, T/C [31]: 102% | viability, T/C [32]: 103% | viability, T/C [33]: 109% | viability, T/C [34]: 107% | viability, T/C [35]: 91.7% | viability, T/C [36]: 8.22%

CC1COCCN1c1cc(-c2ccnn2C)c2ccnc(-c3ccn[nH]3)c2n1 (stereo not given) + Cc1[nH]c2ccc(F)cc2c1-c1nc2c3cccnc3c3ncccc3c2[nH]1
IC50 (second compound 0.0316 µM): 170 nM | IC50 (second compound 0.1 µM): 161 nM | IC50 (second compound 0.316 µM): 172 nM | IC50 (second compound 1 µM): 177 nM | IC50 (second compound 3.16 µM): 79.9 nM | IC50 (second compound 10 µM): 69.3 nM | viability, T/C [1]: 114% | viability, T/C [2]: 77.8% | viability, T/C [3]: 17.3% | viability, T/C [4]: 5.52% | viability, T/C [5]: 4.65% | viability, T/C [6]: 3.39% | viability, T/C [7]: 115% | viability, T/C [8]: 73.2% | viability, T/C [9]: 17% | viability, T/C [10]: 6.08% | viability, T/C [11]: 4.45% | viability, T/C [12]: 3% | viability, T/C [13]: 110% | viability, T/C [14]: 80.3% | viability, T/C [15]: 15.6% | viability, T/C [16]: 7.15% | viability, T/C [17]: 4.49% | viability, T/C [18]: 3.06% | viability, T/C [19]: 105% | viability, T/C [20]: 78.1% | viability, T/C [21]: 21.1% | viability, T/C [22]: 8.54% | viability, T/C [23]: 5.16% | viability, T/C [24]: 2.92% | viability, T/C [25]: 94.4% | viability, T/C [26]: 39.3% | viability, T/C [27]: 8.27% | viability, T/C [28]: 7.24% | viability, T/C [29]: 5.24% | viability, T/C [30]: 4.9% | viability, T/C [31]: 96.4% | viability, T/C [32]: 28.4% | viability, T/C [33]: 5.29% | viability, T/C [34]: 5.42% | viability, T/C [35]: 5.48% | viability, T/C [36]: 5.5%

CC1COCCN1c1cc(C2(S(C)(=N)=O)CC2)nc(-c2ccnc3[nH]ccc23)n1 (stereo not given) + Cc1[nH]c2ccc(F)cc2c1-c1nc2c3cccnc3c3ncccc3c2[nH]1
IC50 (second compound 0.0316 µM): 2500 nM | IC50 (second compound 0.1 µM): 3030 nM | IC50 (second compound 0.316 µM): 3130 nM | IC50 (second compound 1 µM): 2870 nM | IC50 (second compound 3.16 µM): 1750 nM | IC50 (second compound 10 µM): 1450 nM | viability, T/C [1]: 104% | viability, T/C [2]: 91.8% | viability, T/C [3]: 109% | viability, T/C [4]: 90.9% | viability, T/C [5]: 39.4% | viability, T/C [6]: 7.57% | viability, T/C [7]: 106% | viability, T/C [8]: 104% | viability, T/C [9]: 105% | viability, T/C [10]: 96.3% | viability, T/C [11]: 48.2% | viability, T/C [12]: 8.79% | viability, T/C [13]: 99.8% | viability, T/C [14]: 100% | viability, T/C [15]: 106% | viability, T/C [16]: 101% | viability, T/C [17]: 49.6% | viability, T/C [18]: 6.54% | viability, T/C [19]: 99.2% | viability, T/C [20]: 103% | viability, T/C [21]: 108% | viability, T/C [22]: 90.6% | viability, T/C [23]: 46.4% | viability, T/C [24]: 7.68% | viability, T/C [25]: 101% | viability, T/C [26]: 106% | viability, T/C [27]: 107% | viability, T/C [28]: 77.5% | viability, T/C [29]: 20.6% | viability, T/C [30]: 5.11% | viability, T/C [31]: 101% | viability, T/C [32]: 100% | viability, T/C [33]: 97.7% | viability, T/C [34]: 69.1% | viability, T/C [35]: 9.9% | viability, T/C [36]: 3.37%

COc1ccc([C@@H](O)c2cc(-c3ncnc4cc(N5CCOCC5)ccc34)c(F)cc2Cl)nn1 + Cc1[nH]c2ccc(F)cc2c1-c1nc2c3cccnc3c3ncccc3c2[nH]1
IC50 (second compound 0.0316 µM): > 10000 nM | IC50 (second compound 0.1 µM): > 10000 nM | IC50 (second compound 0.316 µM): > 10000 nM | IC50 (second compound 1 µM): > 10000 nM | IC50 (second compound 3.16 µM): > 10000 nM | IC50 (second compound 10 µM): > 10000 nM | viability, T/C [1]: 106% | viability, T/C [2]: 94.7% | viability, T/C [3]: 108% | viability, T/C [4]: 104% | viability, T/C [5]: 112% | viability, T/C [6]: 85.6% | viability, T/C [7]: 107% | viability, T/C [8]: 101% | viability, T/C [9]: 106% | viability, T/C [10]: 104% | viability, T/C [11]: 111% | viability, T/C [12]: 87.8% | viability, T/C [13]: 94.5% | viability, T/C [14]: 102% | viability, T/C [15]: 104% | viability, T/C [16]: 108% | viability, T/C [17]: 111% | viability, T/C [18]: 92.9% | viability, T/C [19]: 91.3% | viability, T/C [20]: 98.4% | viability, T/C [21]: 108% | viability, T/C [22]: 106% | viability, T/C [23]: 109% | viability, T/C [24]: 87.8% | viability, T/C [25]: 100% | viability, T/C [26]: 103% | viability, T/C [27]: 109% | viability, T/C [28]: 108% | viability, T/C [29]: 103% | viability, T/C [30]: 70.7% | viability, T/C [31]: 103% | viability, T/C [32]: 103% | viability, T/C [33]: 106% | viability, T/C [34]: 102% | viability, T/C [35]: 105% | viability, T/C [36]: 56.3%
